What all share (type): biochemical
One assay concerns the target EGFR Δ746-750 mutant (Homo sapiens (Human), UniProt P00533, DEL746-750). Nature of the assay: HotSpot radiometric kinase assay, EGFR Δ746-750 mutant. Conditions: 10 μM ATP. On the procedure:
(§1) Biochemical Assays for Inhibition of Wild-Type and Mutant EGFRs
(§2) Briefly, specific kinase/substrate pairs along with required cofactors were prepared in reaction buffer; 20 mM Hepes pH 7.5, 10 mM […], 1 mM EGTA, 0.02% Brij35, 0.02 mg/ml BSA, 0.1 mM Na3VO4, 2 mM DTT, 1% DMSO. Compounds were delivered into the reaction, followed […] later by addition of a mixture of ATP (Sigma, St. Louis MO) and ^33P ATP (Perkin Elmer, Waltham MA) to a final concentration of 10 μM. Reactions were carried out at room temperature for 120 min, followed by spotting of the reactions onto P81 ion exchange filter paper (Whatman Inc., Piscataway, NJ). Unbound phosphate was removed by extensive washing of filters in 0.75% phosphoric acid. […] IC50 values and curve fits were obtained using Prism (GraphPad Software).

For assay [1], the target named is EGFR L858R/T790M/C797S mutant (Homo sapiens (Human), UniProt P00533, C797S/L858R/T790M). Briefly: HotSpot radiometric kinase assay, EGFR L858R/T790M/C797S mutant. The note with it: 10 μM ATP. The method, then:
as §1, §2

The target in another assay is EGFR L858R mutant (Homo sapiens (Human), UniProt P00533, L858R). Nature of the assay: HotSpot radiometric kinase assay, EGFR L858R mutant. The note with it: 10 μM ATP. On the procedure: as §1, §2
The target in another assay is EGFR (D770_N771insNPG) (Homo sapiens (Human), UniProt P00533, INS770NPG). Nature of the assay: HotSpot radiometric kinase assay, EGFR (D770_N771insNPG). Conditions: 10 μM ATP, read-out: EGFR (Δ770_N771insNPG) IC50. The method, then: as §1, §2
Another assay has as its target EGFR WT (Homo sapiens (Human), UniProt P00533). Nature of the assay: HotSpot radiometric kinase assay (Reaction Biology), EGFR WT. The note with it: 10 μM ATP. On the procedure: as §1, §2
The target of assay [2] is EGFR Δ746-750/C797S mutant (Homo sapiens (Human), UniProt P00533, C797S/DEL746-750). Nature of the assay: HotSpot radiometric kinase assay, EGFR Δ746-750/C797S mutant. The note with it: 10 μM ATP. The method, then: as §1, §2

Each structure is given as a SMILES string.

Chain of EGFR WT (P00533 25-1210): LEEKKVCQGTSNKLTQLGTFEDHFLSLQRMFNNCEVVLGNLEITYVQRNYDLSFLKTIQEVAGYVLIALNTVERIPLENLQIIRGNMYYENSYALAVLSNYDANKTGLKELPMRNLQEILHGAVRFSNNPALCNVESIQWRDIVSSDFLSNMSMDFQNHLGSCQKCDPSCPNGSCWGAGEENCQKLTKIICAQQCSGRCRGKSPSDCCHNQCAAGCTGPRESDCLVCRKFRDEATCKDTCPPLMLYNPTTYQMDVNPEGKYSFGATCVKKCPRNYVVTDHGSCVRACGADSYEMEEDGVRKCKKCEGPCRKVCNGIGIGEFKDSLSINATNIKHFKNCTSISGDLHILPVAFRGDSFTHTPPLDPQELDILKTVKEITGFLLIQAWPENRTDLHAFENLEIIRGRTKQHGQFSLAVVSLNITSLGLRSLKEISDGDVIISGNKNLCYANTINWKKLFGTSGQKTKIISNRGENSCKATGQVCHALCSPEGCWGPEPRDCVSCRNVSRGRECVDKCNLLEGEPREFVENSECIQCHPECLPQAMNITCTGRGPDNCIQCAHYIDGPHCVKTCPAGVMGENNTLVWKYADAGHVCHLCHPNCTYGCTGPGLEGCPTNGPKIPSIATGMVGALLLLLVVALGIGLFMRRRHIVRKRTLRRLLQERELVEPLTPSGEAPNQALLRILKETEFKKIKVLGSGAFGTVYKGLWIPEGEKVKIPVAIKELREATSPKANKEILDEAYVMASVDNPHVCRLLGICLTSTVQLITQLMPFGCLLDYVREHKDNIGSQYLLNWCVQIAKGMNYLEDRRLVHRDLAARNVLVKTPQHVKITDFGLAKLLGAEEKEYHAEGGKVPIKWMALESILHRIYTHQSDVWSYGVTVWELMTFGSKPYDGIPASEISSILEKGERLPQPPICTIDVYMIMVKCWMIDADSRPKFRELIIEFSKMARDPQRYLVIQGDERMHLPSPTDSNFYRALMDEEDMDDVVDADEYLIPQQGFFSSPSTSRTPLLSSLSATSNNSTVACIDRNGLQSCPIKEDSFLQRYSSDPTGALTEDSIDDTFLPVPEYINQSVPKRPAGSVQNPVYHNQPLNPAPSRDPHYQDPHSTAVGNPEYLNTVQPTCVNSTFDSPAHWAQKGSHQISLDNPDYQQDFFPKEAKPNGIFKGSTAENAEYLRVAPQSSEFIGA
Chain of EGFR Δ746-750 mutant (P00533 other isoform, or with tags, fused parts or gaps del 1-668/del 746-750 limits assumed): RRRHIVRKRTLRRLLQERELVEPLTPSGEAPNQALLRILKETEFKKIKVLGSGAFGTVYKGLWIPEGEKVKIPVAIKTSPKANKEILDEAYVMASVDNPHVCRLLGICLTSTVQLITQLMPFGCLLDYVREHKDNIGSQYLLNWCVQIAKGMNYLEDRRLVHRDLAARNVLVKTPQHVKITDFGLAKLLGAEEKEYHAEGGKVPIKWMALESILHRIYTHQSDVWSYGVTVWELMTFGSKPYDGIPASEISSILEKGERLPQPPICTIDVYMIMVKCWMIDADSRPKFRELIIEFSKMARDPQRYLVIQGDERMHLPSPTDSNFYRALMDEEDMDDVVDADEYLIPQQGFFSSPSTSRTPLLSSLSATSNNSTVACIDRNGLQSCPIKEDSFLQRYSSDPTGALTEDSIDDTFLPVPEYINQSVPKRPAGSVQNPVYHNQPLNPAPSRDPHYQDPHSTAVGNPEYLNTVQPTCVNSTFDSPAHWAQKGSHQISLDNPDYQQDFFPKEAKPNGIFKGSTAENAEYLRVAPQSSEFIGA
Chain of EGFR Δ746-750/C797S mutant (P00533 other isoform, or with tags, fused parts or gaps C797S/del 1-668/del 746-750 limits assumed): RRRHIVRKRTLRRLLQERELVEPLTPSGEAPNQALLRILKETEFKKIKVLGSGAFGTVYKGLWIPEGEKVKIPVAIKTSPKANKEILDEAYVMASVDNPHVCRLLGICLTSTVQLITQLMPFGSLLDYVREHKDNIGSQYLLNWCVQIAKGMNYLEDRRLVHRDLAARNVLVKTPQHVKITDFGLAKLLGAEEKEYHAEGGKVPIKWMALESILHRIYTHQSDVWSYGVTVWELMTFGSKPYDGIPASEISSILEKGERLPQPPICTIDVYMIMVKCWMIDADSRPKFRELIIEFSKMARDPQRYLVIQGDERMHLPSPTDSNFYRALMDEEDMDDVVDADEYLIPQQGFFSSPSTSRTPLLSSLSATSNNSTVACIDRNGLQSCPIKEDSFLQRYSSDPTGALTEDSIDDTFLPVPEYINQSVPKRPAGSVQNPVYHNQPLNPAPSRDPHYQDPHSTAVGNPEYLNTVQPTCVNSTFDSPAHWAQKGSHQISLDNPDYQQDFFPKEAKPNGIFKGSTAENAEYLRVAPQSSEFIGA
Chain of EGFR L858R mutant (P00533 25-1210 L858R): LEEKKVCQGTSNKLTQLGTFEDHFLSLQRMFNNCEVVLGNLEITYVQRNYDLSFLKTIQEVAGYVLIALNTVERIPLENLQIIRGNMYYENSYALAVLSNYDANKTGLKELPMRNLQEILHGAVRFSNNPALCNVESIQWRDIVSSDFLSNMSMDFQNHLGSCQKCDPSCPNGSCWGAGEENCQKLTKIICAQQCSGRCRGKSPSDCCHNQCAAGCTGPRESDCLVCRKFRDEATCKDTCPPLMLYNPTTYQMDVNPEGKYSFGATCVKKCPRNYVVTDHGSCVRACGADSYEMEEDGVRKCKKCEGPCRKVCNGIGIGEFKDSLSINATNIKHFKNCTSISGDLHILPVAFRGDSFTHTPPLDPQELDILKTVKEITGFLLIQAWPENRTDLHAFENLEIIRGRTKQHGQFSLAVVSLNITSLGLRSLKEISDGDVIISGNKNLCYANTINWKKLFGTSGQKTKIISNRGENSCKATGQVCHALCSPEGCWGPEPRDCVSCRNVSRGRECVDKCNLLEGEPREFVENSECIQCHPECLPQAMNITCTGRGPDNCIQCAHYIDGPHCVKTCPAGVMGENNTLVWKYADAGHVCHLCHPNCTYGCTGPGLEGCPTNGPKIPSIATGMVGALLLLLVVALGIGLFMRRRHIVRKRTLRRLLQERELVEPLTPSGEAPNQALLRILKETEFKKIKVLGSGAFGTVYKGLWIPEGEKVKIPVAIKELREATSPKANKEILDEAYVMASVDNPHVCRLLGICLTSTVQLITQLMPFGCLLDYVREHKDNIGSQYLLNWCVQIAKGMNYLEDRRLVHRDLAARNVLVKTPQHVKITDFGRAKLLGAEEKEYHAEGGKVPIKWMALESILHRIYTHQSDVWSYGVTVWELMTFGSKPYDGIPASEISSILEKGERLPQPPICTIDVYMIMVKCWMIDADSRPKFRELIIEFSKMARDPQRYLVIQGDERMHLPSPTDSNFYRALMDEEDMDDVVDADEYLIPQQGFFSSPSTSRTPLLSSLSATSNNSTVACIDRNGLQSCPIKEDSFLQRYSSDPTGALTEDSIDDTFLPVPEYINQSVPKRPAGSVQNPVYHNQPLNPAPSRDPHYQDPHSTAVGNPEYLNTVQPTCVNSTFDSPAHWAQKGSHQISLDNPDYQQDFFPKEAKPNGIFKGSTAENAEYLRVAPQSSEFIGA
Chain of EGFR L858R/T790M/C797S mutant (P00533 25-1210 T790M/C797S/L858R): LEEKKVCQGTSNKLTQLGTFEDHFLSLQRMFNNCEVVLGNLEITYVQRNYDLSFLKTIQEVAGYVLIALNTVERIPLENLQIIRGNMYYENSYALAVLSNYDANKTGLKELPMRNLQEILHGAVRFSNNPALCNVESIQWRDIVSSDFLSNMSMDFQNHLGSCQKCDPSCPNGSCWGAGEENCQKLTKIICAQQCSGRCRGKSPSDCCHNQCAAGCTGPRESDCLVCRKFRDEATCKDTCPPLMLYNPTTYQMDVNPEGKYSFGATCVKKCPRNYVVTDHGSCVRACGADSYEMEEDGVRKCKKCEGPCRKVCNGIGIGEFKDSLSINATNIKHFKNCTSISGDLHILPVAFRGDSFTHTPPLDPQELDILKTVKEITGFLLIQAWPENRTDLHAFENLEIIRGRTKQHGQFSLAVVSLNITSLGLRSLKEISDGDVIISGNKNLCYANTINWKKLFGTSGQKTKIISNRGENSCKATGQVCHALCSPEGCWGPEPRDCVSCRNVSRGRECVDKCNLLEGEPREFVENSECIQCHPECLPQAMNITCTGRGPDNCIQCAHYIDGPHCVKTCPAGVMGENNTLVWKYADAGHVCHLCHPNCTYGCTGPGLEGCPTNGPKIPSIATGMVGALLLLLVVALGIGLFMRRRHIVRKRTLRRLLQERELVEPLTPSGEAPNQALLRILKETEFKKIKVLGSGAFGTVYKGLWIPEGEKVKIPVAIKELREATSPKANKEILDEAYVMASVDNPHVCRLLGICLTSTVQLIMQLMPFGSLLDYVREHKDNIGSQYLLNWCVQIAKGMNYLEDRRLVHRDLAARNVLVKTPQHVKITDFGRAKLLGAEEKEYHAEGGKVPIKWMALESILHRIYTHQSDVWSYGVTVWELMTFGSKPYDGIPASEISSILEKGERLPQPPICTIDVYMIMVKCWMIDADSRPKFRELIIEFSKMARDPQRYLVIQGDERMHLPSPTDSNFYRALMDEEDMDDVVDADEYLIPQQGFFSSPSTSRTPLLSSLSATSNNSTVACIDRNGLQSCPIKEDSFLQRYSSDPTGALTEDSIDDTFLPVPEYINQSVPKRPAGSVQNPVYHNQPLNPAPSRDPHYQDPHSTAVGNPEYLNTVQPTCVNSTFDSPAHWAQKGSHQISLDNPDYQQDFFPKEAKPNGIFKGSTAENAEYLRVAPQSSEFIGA

By IC50 is commonly meant the concentration needed to halve the response being measured. For the molecule `Cc1c2c(nn1CCO)OCCCOc1c(cnn1C)-c1ccc3[nH]nc(c3c1)/C=C/2` [Ex. 24, 2-[(17E)-8,16-dimethyl-2,8,11,12-tetrahydro-10H,15H-3,5-etheno[1,5]dioxacyclopentadecino[10,11-c:15,14-c′:6,7-c″]tripyrazol-15-yl]ethan-1-ol], the IC50 at EGFR Δ746-750 mutant is 755 nM; in assay [1], 315 nM; against EGFR L858R mutant, above 1000 nM; on EGFR (D770_N771insNPG), 1770 nM; against EGFR WT, above 1000 nM.
As to `CCc1nn(C)c2c1/C=C/c1n[nH]c3ccc(cc13)-c1cnn(C)c1OCCCO2` [Ex. 10, (17E)-16-ethyl-8,14-dimethyl-2,11,12,14-tetrahydro-8H,10H-3,5-etheno[1,5]dioxacyclopentadecino[10,11-c:15,14-c′:6,7-c″]tripyrazole], the figures for the IC50 against EGFR Δ746-750 mutant and on EGFR (D770_N771insNPG) were 74.3 nM and 713 nM, respectively.
In turn, `CNC(=O)c1cnc2c(c1)/C=C/c1n[nH]c3ccc(cc13)-c1cnn(C)c1COCCO2` [Example 3, (18E)-N,8-dimethyl-8,9,11,12-tetrahydro-2H-3,5-ethenodipyrazolo[3′,4′:9,10;4″,3″:13,14] [1,4]dioxacyclopentadecino[5,6-b]pyridine-16-carboxamide] had an IC50 in assay [1] of 863 nM.
In the case of `CCc1nn(C)c2c1/C=C/c1n[nH]c3ccc(cc13)-c1cnn(C)c1OCC[C@@H](C)O2` [Ex. 15, (12R,17E)-16-ethyl-8,12,14-trimethyl-2,11,12,14-tetrahydro-8H,10H-3,5-etheno[1,5]dioxacyclopentadecino[10,11-c:15,14-c′:6,7-c″]tripyrazole], the IC50 against EGFR Δ746-750 mutant worked out at 139 nM; in assay [1] it was 26.4 nM; against EGFR L858R mutant it was 105 nM; in assay [2], 27.5 nM; on EGFR (D770_N771insNPG) it was 286 nM; on EGFR WT, 419 nM.
Consider `Cc1c2c(nn1CCN1CCCC1)OCCOC(C)c1c(cnn1C)-c1ccc3[nH]nc(c3c1)/C=C/2` (stereo not drawn) [Example 84, (17E)-8,9,16-trimethyl-15-[2-(pyrrolidin-1-yl)ethyl]-2,8,9,11,12,15-hexahydro-3,5-etheno[1,4]dioxacyclopentadecino[11,10-c:15,14-c′:6,7-c″]tripyrazole], for which the IC50 at EGFR Δ746-750 mutant was 381 nM; in assay [2], 130 nM; on EGFR (D770_N771insNPG), 551 nM.
Take `Cn1ncc2c1OCCCCOc1ccccc1/C=C/c1n[nH]c3ccc-2cc13` [Ex. 16, (11E)-1-methyl-18,19,20,21-tetrahydro-1H,8H-10,7,4-(ethan[1]yl[1,2]diylidene)pyrazolo[3,4-g][1,6,13,14]benzodioxadiazacyclononad ecine]: the IC50 came out at 132 nM against EGFR Δ746-750 mutant; 48.4 nM in assay [1]; 49.2 nM on EGFR L858R mutant; 521 nM at EGFR (D770_N771insNPG); 523 nM against EGFR WT.
The corresponding values for `Cc1nn(CCN2CCCC2)c2c1/C=C/c1n[nH]c3ccc(cc13)-c1cnn(C)c1OCCCO2` [Ex. 32, (17E)-8,16-dimethyl-14-[2-(pyrrolidin-1-yl)ethyl]-2,11,12,14-tetrahydro-8H,10H-3,5-etheno[1,5]dioxacyclopentadecino[10,11-c:15,14-c′:6,7-c″ ]tripyrazole] are 155 nM, 37.3 nM, 242 nM, 457 nM and 1260 nM.
For `Cc1c2c(nn1C)OCCCOc1c(cnn1C)-c1ccc3[nH]nc(c3c1)/C=C/2` [Ex. 9, (17E)-8,15,16-trimethyl-2,11,12,15-tetrahydro-8H,10H-3,5-etheno[1,5]dioxacyclopentadecino[10,11-c:15,14-c′:6,7-c″]tripyrazole], the IC50 against EGFR Δ746-750 mutant is 284 nM; in assay [1], 27.2 nM; at EGFR L858R mutant it was 349 nM; at EGFR (D770_N771insNPG), 945 nM; on EGFR WT, 1170 nM.
Turning to `CC(=O)Cn1nc(C)c2c1OCCCOc1c(cnn1C)-c1ccc3[nH]nc(c3c1)/C=C/2` [Example 31, 1-[(17E)-8,16-dimethyl-2,8,11,12-tetrahydro-10H,14H-3,5-etheno[1,5]dioxacyclopentadecino[10,11-c:15,14-c′:6,7-c″]tripyrazol-14-yl]propan-2-one], the IC50 was found to be 58.7 nM on EGFR Δ746-750 mutant; 4.93 nM in assay [1]; 67.7 nM against EGFR L858R mutant; 731 nM at EGFR (D770_N771insNPG); 927 nM against EGFR WT.
For `Cc1nn(C)c2c1/C=C/c1n[nH]c3ccc(cc13)-c1c(C)nn(C)c1OCCN(C)C2` [Example 47, (17E)-6,8,12,14,16-pentamethyl-2,10,11,12,13,14-hexahydro-8H-3,5-ethenotripyrazolo[3,4-f:3′,4′-j:4″,3″- n][1,4]oxazacyclopentadecine], the figures for the IC50 (against EGFR Δ746-750 mutant; in assay [2]; on EGFR (D770_N771insNPG)) were 488 nM, 944 nM and above 1000 nM, respectively.
On the same counts, the results for `CCOc1nn(CCO)c2c1/C=C/c1n[nH]c3ccc(cc13)-c1cnn(C)c1O[C@H](C)[C@H]1CCCN1C2` (single isomer, unassigned) [compound 241] are 0.13 nM, 0.31 nM and 0.18 nM.
`Cc1c2c(nn1CCN1CCCC1)OCCCOc1c(cnn1C)-c1ccc3[nH]nc(c3c1)/C=C/2` [Example 34, (17E)-8,16-dimethyl-15-[2-(pyrrolidin-1-yl)ethyl]-2,11,12,15-tetrahydro-8H,10H-3,5-etheno[1,5]dioxacyclopentadecino[10,11-c:15,14-c′:6,7-c″]tripyrazole]: the IC50 at EGFR Δ746-750 mutant came out at 154 nM; in assay [1], 40.9 nM; on EGFR L858R mutant it was 114 nM; on EGFR (D770_N771insNPG), 191 nM; against EGFR WT, 326 nM.
On to `Cc1ccc2c(n1)/C=C/c1n[nH]c3ccc(cc13)-c1cnn(C)c1O[C@@H](C)CCO2` [Ex. 39, (10S,18E)-8,10,16-trimethyl-2,8,11,12-tetrahydro-10H-3,5-ethenodipyrazolo[3′,4′:10,11;4″,3″:14,15] [1,5]dioxacyclopentadecino[7,6-b]pyridine], for which the IC50 against EGFR Δ746-750 mutant worked out at 176 nM; at EGFR (D770_N771insNPG) it was 1440 nM.
With `Cc1c2c(nn1CC(C)(C)O)OCCCOc1c(cnn1C)-c1ccc3[nH]nc(c3c1)/C=C/2` [Ex. 28, 1-[(17E)-8,16-dimethyl-2,8,11,12-tetrahydro-10H,15H-3,5-etheno[1,5]dioxacyclopentadecino[10,11-c:15,14-c′:6,7-c″ ]tripyrazol-15-yl]-2-methylpropan-2-ol], the IC50 against EGFR Δ746-750 mutant was 819 nM; in assay [1], 578 nM; against EGFR L858R mutant, 1000 nM; at EGFR (D770_N771insNPG), above 1000 nM; on EGFR WT, above 1000 nM.
Regarding `Cc1nn(CC(C)(C)O)c2c1/C=C/c1n[nH]c3ccc(cc13)-c1cnn(C)c1OCCCO2` [Example 30, 1-[(17E)-8,16-dimethyl-2,8,11,12-tetrahydro-10H,14H-3,5-etheno[1,5]dioxacyclopentadecino[10,11-c:15,14-c′:6,7-c″]tripyrazol-14-yl]-2-methylpropan-2-ol], the IC50 at EGFR Δ746-750 mutant worked out at 217 nM; in assay [1], 36.8 nM; at EGFR L858R mutant, 268 nM; at EGFR (D770_N771insNPG), 983 nM; on EGFR WT it was 1300 nM.
As for `Cc1nn(C)c2c1/C=C/c1n[nH]c3ccc(cc13)-c1cnn(C)c1CN(C)C[C@H](C)O2` (single isomer, unassigned) [Example 97], the figures for the IC50 (at EGFR Δ746-750 mutant; in assay [2]; on EGFR (D770_N771insNPG)) were 221 nM, 101 nM and 304 nM, respectively.
The corresponding values for `Cc1c2c(nn1[C@H]1CCN(C)C[C@@H]1O)OCCCOc1c(cnn1C)-c1ccc3[nH]nc(c3c1)/C=C/2` (racemic) [Example 83, (rac)-4-[(17E)-8,16-dimethyl-2,8,11,12-tetrahydro-10H,15H-3,5-etheno[1,5]dioxacyclopentadecino[10,11-c:15,14-c′:6,7-c″]tripyrazol-15-yl]-1-methylpiperidin-3-ol] are 34.6 nM, 31.3 nM and 55.4 nM.
The corresponding values for `Cc1c2c(nn1CCN1CCCC1)CN(C)C[C@H](C)Oc1c(cnn1C)-c1ccc3[nH]nc(c3c1)/C=C/2` [Example 89, (10S,17E)-8,10,12,16-tetramethyl-15-[2-(pyrrolidin-1-yl)ethyl]-2,10,11,12,13,15-hexahydro-8H-3,5-ethenotripyrazolo[3,4-f:3′,4′-j:4″,3″-n][1,4]oxazacyclopentadecine] are 19.7 nM, 6.67 nM and 191 nM.
On the same counts, the results for `CCOc1nn(CCO)c2c1/C=C/c1n[nH]c3ccc(cc13)-c1cnn(C)c1OC1CCCN(C2)C1C` (stereo not drawn) [Example 242, 2-[(19E)-18-ethoxy-8,21-dimethyl-2,10,11,12,13,15-hexahydro-3,5-etheno-10,14-methanotripyrazolo[3,4-h:3′,4′-l:4″,3″-p][1,6]oxazacycloheptadecin-16(8H)-yl]ethan-1-ol] are 55.5 nM, 40.3 nM and 304 nM.

The values above are taken from patent US20250353864A1, “INDAZOLE CONTAINING MACROCYCLES AND THEIR USE” (BLOSSOMHILL THERAPEUTICS, INC., priority 2022, published 2025).
